# According to US20230066882A1, “Stable Reporter Flavivirus” (priority 2021, published 2023):
# Tested on: panel of stable reporter viruses (DENV1, DENV2, DENV3, DENV4, ZIKV, YFV, JEV)
# Assay type: cell-based
compound,measurement,value
C#C[C@@]1(O)[C@H](O)[C@@H](CO)O[C@H]1n1ccc2c(N)ncnc21 [NITD008],EC50 values,potent
same,luciferase expression compared to control,decreased luciferase expression
